Like-named read-outs stand apart in the source and are kept apart here.
Tests used:
CJD patients = settings: human, in vivo
[1] = test system: Scrapie (IC) infected Hamsters; format: in vivo, Syrian hamsters; settings: for Incubation period: IC scrapie-infected hamsters, 7.5% (w/v) DMSO in drinking water, median; for Percentage of infectivity (%): relative to control
amyloid fibrils = settings: cited from earlier work
PrP^Sc [2] = settings: human, in vivo
[3] = in vivo; cited from earlier work
[4] = test system: scrapie-infected neuroblastoma cells (ScN2a); settings: cited from earlier work
amyloidotic diseases = settings: human, in vivo; cited from earlier work
Aβ peptide = target: T1, Aβ peptide (Homo sapiens, UniProt P05067); settings: cited from earlier work
T1 construct: Aβ peptide intermediate with a high β-sheet content

caseic amyloidosis = settings: mouse, in vivo, po; cited from earlier work
[5] = in vivo, po; cited from earlier work
PrP^Sc [6] = target: PrP^Sc (Mesocricetus auratus, UniProt P04273); format: in vivo, hamster; settings: IC-inoculated, DMSO 14-end group, brain homogenate
[7] = test system: Scrapie (IP) infected Hamsters; settings: for Incubation period: IP scrapie-infected hamsters, 7.5% (w/v) DMSO in drinking water

PrP^Sc (Mesocricetus auratus, UniProt P04273), sequence (P04273 23-231 limits assumed): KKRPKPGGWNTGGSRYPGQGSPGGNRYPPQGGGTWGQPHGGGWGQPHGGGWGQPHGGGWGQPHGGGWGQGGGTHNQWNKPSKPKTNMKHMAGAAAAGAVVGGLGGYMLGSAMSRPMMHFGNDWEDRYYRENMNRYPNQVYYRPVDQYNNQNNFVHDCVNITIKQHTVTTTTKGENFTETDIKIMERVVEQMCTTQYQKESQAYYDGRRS
T1 sequence (P05067 672-711 limits assumed): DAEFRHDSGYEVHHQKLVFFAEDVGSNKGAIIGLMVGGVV

C[S+](C)[O-] [DMSO, dimethyl sulfoxide]
cerebellar syndrome during the treatment (CJD patients): progressed
cognitive decline during the treatment (CJD patients): no further cognitive decline
deterioration, medical evaluation (CJD patients): slower than expected
titubation and tremor, medical evaluation (CJD patients): improvement
Incubation period ([1]; 0-14 dpi): 85 days
Incubation period ([1]; 0-end dpi): 101 days
Incubation period ([1]; 14-end dpi): 107 days
Incubation period ([1]; 55-end dpi): 91 days
effect on incubation time compared with control group ([1]; IC, 0-14 group): significant deleterious effect
Infectivity (Log I.D 50) ([1]; IC, DMSO treatment 0-14 dpi): 7.1 Log I.D 50
Variance from control group [P < 0.05] ([1]; IC, DMSO treatment 0-14 dpi): + ([+] means statistically significant difference [p < 0.05])
Percentage of infectivity (%) ([1]; IC, DMSO treatment 0-14 dpi): 1258%
Infectivity (Log I.D 50) ([1]; IC, DMSO treatment 0-end dpi): 4.9 Log I.D 50
Variance from control group [P < 0.05] ([1]; IC, DMSO treatment 0-end dpi): + ([+] means statistically significant difference [p < 0.05])
Percentage of infectivity (%) ([1]; IC, DMSO treatment 0-end dpi): 3.16%
Infectivity (Log I.D 50) ([1]; IC, DMSO treatment 14-end dpi): 4.5 Log I.D 50
Variance from control group [P < 0.05] ([1]; IC, DMSO treatment 14-end dpi): + ([+] means statistically significant difference [p < 0.05])
Percentage of infectivity (%) ([1]; IC, DMSO treatment 14-end dpi): 3.16%
Infectivity (Log I.D 50) ([1]; IC, DMSO treatment 55-end dpi): 6.4 Log I.D 50
difference from control group in incubation time ([1]; IC, DMSO-treated from 55 dpi-end): no statistically significant difference
incubation time for the disease compared with control group ([1]; IC, treatment plans 0-end or 14-end): statistically significant increase
assembly of amyloid fibrils (amyloid fibrils): blocks the assembly of amyloid fibrils
disassembly of preexisting fibrils (amyloid fibrils): does not interfere
secreted PrP^Sc in the urine (PrP^Sc [2]): continuously increasing amounts
side effects [3]: no serious side effects
formation of PrP^Sc from newly synthesized PrP^C [4]: interfered with the formation of PrP^Sc
patients showing clinical improvement (amyloidotic diseases): about 50%
urine of patients after DMSO (amyloidotic diseases): contains material that can form fibrils
formation of Aβ peptide intermediate with a high β-sheet content (Aβ peptide): block the formation
development of the disease (caseic amyloidosis): prevented the development of the disease
time to peak concentration [5]: 4 h
PrP^Sc in sample from untreated animal relative to DMSO-treated animal (band intensity) (PrP^Sc [6]; 90 dpi): about 10 times
PrP in DMSO-treated animals at 90-110 dpi compared with untreated animals at 60 dpi (PrP^Sc [6]): equivalent
PrP^Sc in DMSO-treated animals at 110 dpi compared with untreated animals at 90 dpi (final stages) (PrP^Sc [6]): equivalent amounts
Incubation period ([7]; 0 - end dpi): 127.6 days
Incubation period ([7]; 28 - end dpi): 126.6 days
Incubation period ([7]; 55 - end dpi): 136.8 days
Variance from control group [P < 0.05] ([7]; IP, DMSO treatment 0 - end dpi): + ([+] means statistically significant difference [p < 0.05])
Variance from control group [P < 0.05] ([7]; IP, DMSO treatment 28 - end dpi): + ([+] means statistically significant difference [p < 0.05])
Variance from control group [P < 0.05] ([7]; IP, DMSO treatment 55 - end dpi): + ([+] means statistically significant difference [p < 0.05])
overall effect for the animals treated with DMSO ([7]; IP, all treatment plans of Table 2): overall beneficial effect
beneficial effect on longevity ([7]; IP, groups 0-end and 28-end): marginal
longevity ([7]; IP, treated only from 55 dpi onwards): most remarkable longevity
adverse DMSO effects ([7]; hamsters, DMSO in drinking water): weight loss
